Key:
giant foxtail = test: Test B pre/postemergence giant foxtail; type: in vivo, Setaria faberii
In short: (§1)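 Test chemicals in a non-phytotoxic solvent mixture with surfactant were sprayed preemergence onto planted seeds and postemergence onto plants 2 to 18 cm tall (1- to 4-leaf stage). After twelve to sixteen days in a greenhouse, injury was visually rated against untreated controls from 0 (no effect) to 10 (complete control).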

duck salad = test: Test B flood test duck salad; type: in vivo, Heteranthera limosa
In short: (§2)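 Read-out is a visual response score from 0 (no effect) to 10 (complete control), assigned by comparison with untreated controls. Treatment was applied at the 2-leaf stage, and plants stayed in the greenhouse for twelve to sixteen days before scoring.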

rice = test: Test B flood test rice; type: in vivo, Oryza sativa
In short: as §2

smallflower flatsedge = test: Test B flood test smallflower flatsedge; type: in vivo, Cyperus difformis
In short: as §2

pigweed = test: Test B pre/postemergence pigweed; type: in vivo, Amaranthus retroflexus
In short: as §1

corn = test: Test B pre/postemergence corn; type: in vivo, Zea mays
In short: as §1

purple nutsedge = test: Test B pre/postemergence purple nutsedge; type: in vivo, Cyperus rotundus
In short: as §1

bedstraw = test: Test B pre/postemergence bedstraw; type: in vivo, Galium aparine
In short: as §1

wheat = test: Test B pre/postemergence wheat; type: in vivo, Triticum aestivum
In short: as §1

wild oat = test: Test B pre/postemergence wild oat; type: in vivo, Avena fatua
In short: as §1

rape = test: Test B pre/postemergence rape; type: in vivo, Brassica napus
In short: as §1

surinam grass = test: Test B pre/postemergence surinam grass; type: in vivo, Brachiaria decumbens
In short: as §1

sugar beet = test: Test B pre/postemergence sugar beet; type: in vivo, Beta vulgaris
In short: as §1

velvetleaf = test: Test B pre/postemergence velvetleaf; type: in vivo, Abutilon theophrasti
In short: as §1

cocklebur = test: Test B pre/postemergence cocklebur; type: in vivo, Xanthium strumarium
In short: as §1

soybean = test: Test B pre/postemergence soybean; type: in vivo, Glycine max
In short: as §1

[1] = Postemergence, Rate 62 g/ha, scale 0 to 10, 0 is no effect, 10 is complete control
[2] = Postemergence, Rate 250 g/ha, scale 0 to 10, 0 no effect, 10 complete control
[3] = Preemergence, Rate 62 g/ha, scale 0 to 10 (0 no effect, 10 complete control)
[4] = Preemergence, Rate 125 g/ha, scale 0 to 10 (0 no effect, 10 complete control)
[5] = Preemergence, Rate 250 g/ha, scale of 0 to 10 where 0 is no effect and 10 is complete control
[6] = Preemergence, Rate 500 g/ha, scale 0 (no effect) to 10 (complete control)
[7] = Rate 125 g/ha, Postemergence, scale 0 to 10, 0 no effect, 10 complete control
[8] = Rate 500 g/ha, Postemergence, scale 0 to 10, 0 no effect, 10 complete control
[9] = Rate 125 g/ha, Postemergence section (flood test species), scale 0 to 10, 0 no effect, 10 complete control
[10] = Rate 500 g/ha, listed under Postemergence (flood test species), scale 0 to 10, 0 no effect, 10 complete control
[11] = flood test, listed under Postemergence, Rate 250 g/ha, scale 0 to 10, 0 no effect, 10 complete control

Cc1ccccc1-n1c(=O)on(C(=O)N(c2cc(F)ccc2F)C(C)C)c1=O [Compound 68]
Giant foxtail plant response rating (giant foxtail; [1]): 0
Giant foxtail plant response rating (giant foxtail; [2]): 0
Giant foxtail plant response rating (giant foxtail; [3]): 5
Plant response rating, Giant foxtail (giant foxtail; [4]): 9
Plant response rating, Giant foxtail (giant foxtail; [5]): 10
Giant foxtail plant response rating (giant foxtail; [6]): 10
Giant foxtail plant response rating (giant foxtail; [7]): 0
Giant foxtail plant response rating (giant foxtail; [8]): 0
Ducksalad plant response rating (duck salad; [1]): 0
Ducksalad plant response rating (duck salad; [9]): 0
Ducksalad plant response rating (duck salad; [10]): 0
Ducksalad plant response rating (duck salad; [11]): 0
Rice plant response rating (rice; [1]): 0
Rice plant response rating (rice; [9]): 0
Rice plant response rating (rice; [10]): 0
Rice plant response rating (rice; [11]): 0
S. Flatsedge plant response rating (smallflower flatsedge; [1]): 0
S. Flatsedge plant response rating (smallflower flatsedge; [9]): 0
S. Flatsedge plant response rating (smallflower flatsedge; [10]): 0
S. Flatsedge plant response rating (smallflower flatsedge; [11]): 0
Redroot pigweed plant response rating (pigweed; [1]): 0
Redroot pigweed plant response rating (pigweed; [2]): 0
Redroot pigweed plant response rating (pigweed; [3]): 0
Plant response rating, Redroot pigweed (pigweed; [4]): 2
Plant response rating, Redroot pigweed (pigweed; [5]): 7
Redroot pigweed plant response rating (pigweed; [6]): 10
Redroot pigweed plant response rating (pigweed; [7]): 0
Redroot pigweed plant response rating (pigweed; [8]): 0
Corn plant response rating (corn; [1]): 0
Corn plant response rating (corn; [2]): 0
Corn plant response rating (corn; [3]): 0
Plant response rating, Corn (corn; [4]): 0
Plant response rating, Corn (corn; [5]): 0
Corn plant response rating (corn; [6]): 0
Corn plant response rating (corn; [7]): 0
Corn plant response rating (corn; [8]): 0
Nutsedge plant response rating (purple nutsedge; [1]): 0
Nutsedge plant response rating (purple nutsedge; [2]): 0
Plant response rating, Nutsedge (purple nutsedge; [4]): 0
Plant response rating, Nutsedge (purple nutsedge; [5]): 10
Nutsedge plant response rating (purple nutsedge; [6]): 10
Nutsedge plant response rating (purple nutsedge; [7]): 0
Nutsedge plant response rating (purple nutsedge; [8]): 0
Bedstraw plant response rating (bedstraw; [1]): 4
Bedstraw plant response rating (bedstraw; [2]): 7
Bedstraw plant response rating (bedstraw; [3]): 0
Plant response rating, Bedstraw (bedstraw; [4]): 0
Plant response rating, Bedstraw (bedstraw; [5]): 4
Bedstraw plant response rating (bedstraw; [6]): 4
Bedstraw plant response rating (bedstraw; [7]): 7
Wheat plant response rating (wheat; [1]): 0
Wheat plant response rating (wheat; [2]): 0
Wheat plant response rating (wheat; [3]): 0
Plant response rating, Wheat (wheat; [4]): 0
Plant response rating, Wheat (wheat; [5]): 0
Wheat plant response rating (wheat; [6]): 0
Wheat plant response rating (wheat; [7]): 0
Wheat plant response rating (wheat; [8]): 0
Wild oats plant response rating (wild oat; [1]): 0
Wild oats plant response rating (wild oat; [2]): 0
Wild oats plant response rating (wild oat; [3]): 0
Plant response rating, Wild oats (wild oat; [4]): 0
Plant response rating, Wild oats (wild oat; [5]): 2
Wild oats plant response rating (wild oat; [6]): 2
Wild oats plant response rating (wild oat; [7]): 0
Wild oats plant response rating (wild oat; [8]): 0
Rape plant response rating (rape; [1]): 0
Rape plant response rating (rape; [2]): 0
Rape plant response rating (rape; [3]): 0
Plant response rating, Rape (rape; [4]): 0
Plant response rating, Rape (rape; [5]): 2
Rape plant response rating (rape; [6]): 6
Rape plant response rating (rape; [7]): 0
Rape plant response rating (rape; [8]): 0
B. signalgrass plant response rating (surinam grass; [1]): 0
B. signalgrass plant response rating (surinam grass; [2]): 0
B. signalgrass plant response rating (surinam grass; [3]): 0
Plant response rating, B. signalgrass (surinam grass; [4]): 3
Plant response rating, B. signalgrass (surinam grass; [5]): 4
B. signalgrass plant response rating (surinam grass; [6]): 8
B. signalgrass plant response rating (surinam grass; [7]): 0
B. signalgrass plant response rating (surinam grass; Rate 500 g/ha, Postemergence, scale of 0 to 10 where 0 is no effect and 10 is complete control): 0
Sugarbeets plant response rating (sugar beet; [1]): 0
Sugarbeets plant response rating (sugar beet; [2]): 0
Sugarbeets plant response rating (sugar beet; [3]): 0
Plant response rating, Sugarbeets (sugar beet; [4]): 0
Plant response rating, Sugarbeets (sugar beet; [5]): 0
Sugarbeets plant response rating (sugar beet; [6]): 0
Sugarbeets plant response rating (sugar beet; [7]): 0
Sugarbeets plant response rating (sugar beet; [8]): 3
Velvetleaf plant response rating (velvetleaf; [1]): 0
Velvetleaf plant response rating (velvetleaf; [2]): 2
Velvetleaf plant response rating (velvetleaf; [3]): 0
Plant response rating, Velvetleaf (velvetleaf; [4]): 0
Plant response rating, Velvetleaf (velvetleaf; [5]): 0
Velvetleaf plant response rating (velvetleaf; [6]): 0
Velvetleaf plant response rating (velvetleaf; [7]): 0
Velvetleaf plant response rating (velvetleaf; [8]): 3
Cocklebur plant response rating (cocklebur; [1]): 0
Cocklebur plant response rating (cocklebur; [2]): 2
Cocklebur plant response rating (cocklebur; [3]): 0
Plant response rating, Cocklebur (cocklebur; [4]): 0
Plant response rating, Cocklebur (cocklebur; [5]): 0
Cocklebur plant response rating (cocklebur; [6]): 0
Cocklebur plant response rating (cocklebur; [7]): 0
Cocklebur plant response rating (cocklebur; [8]): 2
Soybean plant response rating (soybean; [1]): 1
Soybean plant response rating (soybean; [2]): 3
Soybean plant response rating (soybean; [3]): 0
Plant response rating, Soybean (soybean; [4]): 0
Plant response rating, Soybean (soybean; [5]): 0
Soybean plant response rating (soybean; [6]): 0
Soybean plant response rating (soybean; [7]): 2
Soybean plant response rating (soybean; [8]): 3
